Experimental data from US8957042B2, “Cancer treatment targeting non-coding RNA overexpression” (The Texas A&M University System, priority 2012, dated 2015).

Legend:
MALAT-1 [1] = assay: MALAT-1 expression (RNA abundance) in Panc1 cells; type: cell-based, human; details: doses of 5.0 and 7.0 μM
Method: (§1) MALAT-1 RNA was detected using forward and reverse oligonucleotides with sequences set forth herein as SEQ ID NOS:7 and 8. Furthermore, MALAT-1 can be detected in serum obtained from pancreatic cancer patients (not shown) and this correlates with the reported high expression of MALAT-1 in pancreatic tumors compared to non-tumor tissues. Subsequent MALAT-1 knockdown studies with RNA interference were conducted using two oligonucleotides (siMALAT-1a and siMALAT-1b), the sequences of which are set forth herein as SEQ ID NOS:5 and 6, respectively. […] Thus, MALAT-1 and MALAT-1-regulated genes play a role in pancreatic cancer cell growth. […] Additional studies on the role of MALAT-1 in cell survival and kinase signaling were performed, because both pathways are affected, in part, by overexpression of growth factors and activating RAS mutations. These aspects are common in many pancreatic cancer cell lines and tumors.

miR-27a, ZBTB10 = details: colon cancer cells; cited from earlier work
MALAT-1 [2] = assay: MALAT-1 expression (RNA abundance) in L3.6pL cells; type: cell-based; details: doses of 5.0 and 7.0 μM
Method: as §1

ZBTB10 = ZBTB10 expression in Panc1 cells; type: cell-based, human
ROS = ROS induction in pancreatic cancer cells; type: cell-based; details: pancreatic cancer cells (data not shown)
[3] = test system: Sp1, Sp3, and Sp4 proteins; assay: Sp1, Sp3 and Sp4 protein expression in Panc1 cells; type: cell-based, human
HOTAIR = HOTAIR expression (RNA levels, real time PCR) in Panc1 cells; type: cell-based, human; details: for HOTAIR expression after siRNA transfection: vs siCT
Method: (§2) RNA isolation and quantitative PCR: Total RNA was extracted either from pancreatic cancer cell lines or from tissue samples. Five control and siRNA HOTAIR-transfected tissue samples were analyzed, respectively, from xenograft study using mirVana RNA isolation kit from Ambion (Austin, Tex., USA), and quantitative PCR was carried out using iCycler IQTM real-time PCR detection system (Bio-Rad, Hercules, Calif., USA) after reverse transcription to cDNAs. The RT primer sets for HOTAIR, PCDHB5, PCDH10, JAM2, LAMB3, ABL2, SNA1 and LAMC2 were used as described previously (Gupta, R. A., et al., “Long Non-Coding RNA HOTAIR Reprograms Chromatin State to Promote Cancer Metastasis,” Nature 464:1071-1076, 2010). The forward and reverse oligonucleotide primer sequences specifically for HOTAIR amplification and detection are also set forth herein as SEQ ID NOS:1 and 2, respectively.

miR-27a = miR-27a expression in Panc1 cells; type: cell-based, human
Panc1 cells [4] = assay: Annexin V apoptosis assay, Panc1; type: cell-based, human; details: Panc1 cells transfected with siRNA
Method: (§3) Boyden chamber cell invasion and apoptosis assays: Pancreatic cancer cells were transfected with either siRNAs (HOTAIR vs. control) or expression vectors (empty vs. HOTAIR) and cell invasion assay was performed as described previously. Cells were transfected with siCT or siHOTAIR and after 72 h, cells were stained for Annexin V using the Vibrant apoptosis assay kit as described.

GDF15 promoter = GDF15 promoter luciferase assay in Panc1 cells; type: cell-based, human
Method: siRNA transfection and luciferase assay: Pancreatic cancer cells were transfected with 100 nM of control siRNA or HOTAIR siRNA I (available from Sigma Aldrich, catalogue No. SASI_Hs02—00380445) or HOTAIR siRNA II (available from Sigma Aldrich, catalogue No. SASI_Hs02—00380446) using Lipofectamine 2000 (Invitrogen, Grand Island, N.Y., USA). Panc1 cells were cotransfected with control siRNA or HOTAIR siRNA I and HOTAIR II, and various length of GDF15 luciferase constructs. Luciferase activities were measured after 24 h as described previously. MISSION siRNAs for EZH2 and Suz12 were also purchased from Sigma Aldrich.

L3.6pL cells [5] = assay: Xenograft of siRNA-transfected L3.6pL cells in nude mice; type: in vivo
Method: Xenograft study: L3.6pL cells (6×10^4 ml) were transfected with 100 nM siHOTAIR or siCT using Lipofectamine. After 48 h cells were collected and 1×10^6 cells injected into either side of the flank area of female nude mice (Harlan), and tumor volumes and weights were determined in mice from the siHOTAIR (six mice) or siCT (six mice) groups as described, and siHOTAIR levels were determined by realtime PCR. Tumor volumes were measured (0.5×length×width^2) and after 16 days, the mice were killed and tumor weights were measured and also used for further analysis as described.
Immunohistochemistry and TUNEL assay: Tissue sections were deparaffinized in xylene and treated with graded series of alcohol and rehydrated in PBS. Antigen retrieval was done using 10 mM sodium citrate (pH 6.0-6.2) and endogenous peroxidase was blocked by 3% hydrogen peroxide in methanol for 6 min. Slides were then incubated with blocking serum (Vecstatin ABC Elite kit, Vector Laboratories, Burlingame, Calif., USA) for 45 min. Samples were then incubated overnight with Ki-67 and PCNA antibodies at 4° C. Sections were then washed in PBST and then incubated with biotinylated secondary antibody followed by streptavidin. The brown staining specific for antibody binding was developed by exposing the avidin and biotinylated peroxidase complex to diaminobenzidine reagent (Vector Laboratories) and sections were then counterstained with hematoxylin (Vector Laboratories). The in situ cell death detection POD kit was used for the TUNEL assay according to the instructions in the protocol for tissue sections.

L3.6pL cells [6] = assay: Annexin V apoptosis assay, L3.6pL; type: cell-based; details: L3.6pL cells transfected with siRNA
Method: as §3

cyclin D1 and cyclin E [7] = assay: Cyclin D1 and cyclin E mRNA in Panc1 cells; type: cell-based, human; details: Panc1 cells (FIG. 2C)
Method: as §2

cyclin D1 and cyclin E [8] = assay: Cyclin D1 and cyclin E mRNA in L3.6pL cells; type: cell-based; details: L3.6pL cells (FIG. 2D)
Method: as §2

Panc28 and Panc1 cells = assay: Transwell migration of pancreatic cancer cells (Boyden chamber); type: cell-based, human; details: pancreatic cancer cells (not shown)
Method: as §3

Panc1 cells [9] = assay: Cell proliferation (cell counting) of Panc1 cells after siRNA transfection; type: cell-based, human; details: vs control oligonucleotide
Method: (§4) Cell proliferation and fluorescence-activated cell sorting analysis and apoptosis: Cells were seeded in 12-well plates and transfected with either appropriate siRNA or expression vectors, and cell numbers were counted at the indicated times using a Coulter Z1 cell counter (Beckman Coulter, Fullerton, Calif., USA). For fluorescence-activated cell sorting analysis, after pancreatic cancer cells were transfected with siRNAs for either control or HOTAIR, cells were stained with propidium iodide solution and were analyzed on a FACS Calibur Flow Cytometer (Becton Dickinsin Systems, Franklin Lakes, N.J., USA).

[10] = test system: cPARP, EZH2, Cyclin D1, survivin, VEGF; assay: Expression of cPARP, EZH2, Cyclin D1, survivin, VEGF in Panc1 cells; type: cell-based, human; details: Panc1 cells transfected with siRNA
L3.6pL cells [11] = assay: Cell proliferation (cell counting) of L3.6pL cells after siRNA transfection; type: cell-based; details: vs control oligonucleotide
Method: as §4

Panc28 cells = assay: Cell proliferation of Panc28 cells after siRNA transfection; type: cell-based, human; details: 48 and 72 hours, vs siLamin
HOTTIP = HOTTIP expression in Panc1 cells; type: cell-based, human
Excerpt: (§5) Using short interfering RNAs corresponding to SpTF genes for RNAi assays, expression of the SpTF were successfully knocked down. Sp1 was knocked down using an oligonucleotide with a sequence set forth herein as SEQ ID NO:19. Sp3 was knocked down using an oligonucleotide with a sequence set forth herein as SEQ ID NO:20. Sp4 was knocked down using an oligonucleotide with a sequence set forth herein as SEQ ID NO:21. […] FIG. 6B. In this assay, HOTAIRM was amplified and detected using forward and reverse oligonucleotide sequences set forth herein as SEQ ID NOS:3 and 4, respectively. Additionally, HOTTIP was amplified and detected using forward and reverse oligonucleotide sequences set forth herein as SEQ ID NOS:10 and 11, respectively.

Sp1, Sp3, and Sp4 mRNA = assay: Sp1, Sp3, Sp4 mRNA knockdown in Panc1 cells; type: cell-based, human; details: vs siCT
Excerpt: as §5

miR-21 and miR-181b [12] = assay: Oncogenic miR levels in L3.6pL cells (real time PCR); type: cell-based; details: 100 nM siRNA
Method: (§6) Panc28 and L3.6pL pancreatic cancer cell lines were seeded (6×10^4 per well) in 6-well plates in DMEM:Ham's F-12 medium supplemented with 2.5% charcoal-stripped FBS without antibiotic and left to attach for 1 d. Single and triple Sp siRNA knockdown (iSp1, iSp3, iSp4) along with iLamin as control was performed using LipofectAMINE™2000 transfection reagent as per the manufacturer's protocol to attain 100 nM concentration of siRNA in the media. Cells were left with the transfection mixture for 24-48 hrs before changing to fresh 2.5% DMEM-F12 media. Cells were harvested after 60-72 hrs for protein, mRNA or miRNA. miRNA was extracted using mirVana™ miRNA extraction kit (Applied Biosystems) according to manufacturer's protocol and was used to assess expression of various non-coding RNAs using different primers and determined by real-time PCR.

HOTAIRM1 = HOTAIRM1 expression in Panc1 cells; type: cell-based, human
Excerpt: as §5

miR-21 and miR-181b [13] = assay: Oncogenic miR levels in Panc28 cells (real time PCR); type: cell-based, human; details: 100 nM siRNA
Method: as §6

## COC(=O)[C@@]1(C)CCC2(C)CC[C@]3(C)C(=CC(=O)[C@@H]4C5(C)C=C(C#N)C(=O)C(C)(C)[C@@H]5CCC43C)C2C1 (stereo partly drawn) [CDODA-Me, methyl 2-cyano-3,11-dioxo-18β-olean-1,12-dien-30-oate]
MALAT-1 [1]
  MALAT-1 expression: significantly downregulate
miR-27a, ZBTB10
  ZBTB10: increased
  microRNA (miR)-27a: decreased
MALAT-1 [2]
  MALAT-1 expression: significantly downregulate
ZBTB10
  ZBTB10 expression: induction
ROS
  ROS: induce ROS
[3]; 24 hrs (FIG. 7A)
  Sp1, Sp3, and Sp4 proteins: downregulate
[3]; 48 hrs
  Sp proteins after 48 hrs: almost non-detectable
[3]; cotreatment with DTT or GSH
  induction of ZBTB10, downregulation of miR-27a and repression of Sp1, Sp3, Sp4 after cotreatment with antioxidants: inhibited
HOTAIR; drug treatment, 24 hrs (FIG. 7B)
  HOTAIR expression: decreased
miR-27a
  miR-27a: downregulation

## siHOTAIR II: HOTAIR siRNA II, Sigma Aldrich catalogue No. SASI_Hs02—00380446 (UGAACACGACUUGGUGUGGTT; chemistry not given here)
Panc1 cells [4]
  Annexin V staining (apoptosis): enhanced
GDF15 promoter
  luciferase activity, GDF15 promoter constructs -3500 to +41, -1086 to +41 and -474 to +41: decreased
L3.6pL cells [5]; after 16 days, vs siCT
  pancreatic tumor weight: dramatic decrease
L3.6pL cells [5]; end of study, vs siCT
  HOTAIR expression in tumors: dramatic decrease
L3.6pL cells [5]; up to 16 days, vs siCT
  pancreatic tumor volume: dramatic decrease
L3.6pL cells [6]
  Annexin V staining (apoptosis): enhanced
Cyclin D1 and cyclin E [7]
  expression of cyclin D1 and cyclin E: decreased expression
Cyclin D1 and cyclin E [8]
  expression of cyclin D1 and cyclin E: decreased expression

## siHOTTIP: siRNA for HOTTIP, SEQ ID NO:9 (GCACAGAGAUAAUGGCAAAUU; listed as RNA, chemistry not given here)
Panc28 and Panc1 cells
  transwell migration: significantly decreased
Panc1 cells [4]
  Annexin V staining (apoptosis): increased staining
L3.6pL cells [5]; at sacrifice, vs control
  reduction in tumor weight: ~75%
L3.6pL cells [5]; over ten days, vs control cells
  tumor volume: significant reduction
L3.6pL cells [6]
  Annexin V staining (apoptosis): increased staining
Panc1 cells [9]
  cell proliferation / cell growth: reductions in cell growth
[10]
  PARP cleavage / cPARP: induced expression
  expression of EZH2, Cyclin D1, survivin and VEGF: decreased expression
L3.6pL cells [11]
  cell proliferation / cell growth: reductions in cell growth

## siMALAT-1a: siRNA for MALAT-1 knockdown, SEQ ID NO:5 (GGCAAUAGAGGCCCUUAA; listed as RNA, chemistry not given here)
Panc28 cells
  cell proliferation: significant inhibition
Panc1 cells [9]
  cell proliferation / cell growth: significant inhibition

## siMALAT-1b: siRNA for MALAT-1 knockdown, SEQ ID NO:6 (GAAUUCCGGUGAUGCGAGU; listed as RNA, chemistry not given here)
Panc28 cells
  cell proliferation: significant inhibition
Panc1 cells [9]
  cell proliferation / cell growth: significant inhibition

## siSp3: siRNA for Sp3, sequence SEQ ID NO:20 (GCGGCAGGUGGAGCCUUCACUTT; chemistry not given here)
HOTTIP
  HOTTIP expression: significant decrease
Sp1, Sp3, and Sp4 mRNA
  mRNA level of the respective Sp (Sp1, Sp3, Sp4): decreased
miR-21 and miR-181b [12]
  miR-21 expression: decrease
  miR-181b expression: decrease
HOTAIR
  HOTAIR expression after siRNA transfection: significant decrease
HOTAIRM1
  HOTAIRM1 expression: significant decrease
miR-21 and miR-181b [13]
  miR-21 expression: decrease
  miR-181b expression: decrease

## siSp4: siRNA for Sp4, sequence SEQ ID NO:21 (GCAGUGACACAUUAGUGAGCTT; chemistry not given here)
HOTTIP
  HOTTIP expression: significant decrease
Sp1, Sp3, and Sp4 mRNA
  mRNA level of the respective Sp (Sp1, Sp3, Sp4): decreased
miR-21 and miR-181b [12]
  miR-21 expression: decrease
  miR-181b expression: decrease
HOTAIR
  HOTAIR expression after siRNA transfection: significant decrease
HOTAIRM1
  HOTAIRM1 expression: significant decrease
miR-21 and miR-181b [13]
  miR-21 expression: decrease
  miR-181b expression: decrease
